Non-standard residues stand in square brackets, D forms with d. Residues, ends and D or L forms follow the SMILES beside them. Aib = CC(C)(N)C(=O)O
Each molecule was assayed against T1, LCAT (purified from human plasma) (Homo sapiens, UniProt P04180) (assay: LCAT activation assay). Settings: LCAT activation as compared with native human ApoA-I (= 100%), equivalent masses.
T1 construct: from tissue; host or cells: human plasma
T1 sequence (P04180 25-440): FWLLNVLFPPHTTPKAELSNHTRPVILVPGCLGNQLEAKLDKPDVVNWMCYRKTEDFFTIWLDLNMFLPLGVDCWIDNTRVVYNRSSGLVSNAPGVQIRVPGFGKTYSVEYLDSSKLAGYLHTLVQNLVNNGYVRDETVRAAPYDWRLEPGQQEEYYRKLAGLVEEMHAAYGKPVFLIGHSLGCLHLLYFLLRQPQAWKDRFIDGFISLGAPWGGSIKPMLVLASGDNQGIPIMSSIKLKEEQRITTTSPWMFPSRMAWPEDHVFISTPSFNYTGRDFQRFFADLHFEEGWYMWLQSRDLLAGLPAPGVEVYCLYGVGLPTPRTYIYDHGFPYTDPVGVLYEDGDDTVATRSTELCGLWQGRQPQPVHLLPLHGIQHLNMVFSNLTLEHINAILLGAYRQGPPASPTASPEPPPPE
Type: biochemical
Procedure: The peptides synthesized as described in Section 6, supra, were analyzed in vitro for their ability to activate LCAT. In the LCAT assay, substrate vesicles (small unilamellar vesicles or “SUVs”) composed of egg phophatidylcholine (EPC) or 1-Palmitoyl-2-oleyl-phosphatidyl-choline (POPC) and radiolabelled cholesterol are preincubated with equivalent masses either of peptide or ApoA-I (isolated from human plasma). The reaction is initiated by addition of LCAT (purified from human plasma). Native ApoA-I, which was used as positive control, represents 100% activation activity. “Specific activity” (i.e., units of activity (LCAT activation)/unit of mass) of the peptides can be calculated as the concentration of peptide that achieves maximum LCAT activation. For example, a series of concentrations of the peptide (e.g., a limiting dilution) can be assayed to determine the “specific activity” for the peptide—the concentration which achieves maximal LCAT activation (i.e., percentage conversion of cholesterol to cholesterol ester) at a specific timepoint in the assay (e.g., 1 hr.). When plotting percentage conversion of cholesterol at, e.g., 1 hr., against the concentration of peptide used, the “specific activity” can be identified as the concentration of peptide that achieves a plateau on the plotted curve.
The vesicles used in the LCAT assay are SUVs composed of egg phosphatidylcholine (EPC) or 1-palmitoyl-2-oleyl-phosphatidylcholine (POPC) and cholesterol with a molar ratio of 20:1. To prepare a vesicle stock solution sufficient for 40 assays, 7.7 mg EPC (or 7.6 mg POPC; 10 μmol), 78 μg (0.2 μmol) 4-^14C-cholesterol, 116 μg cholesterol (0.3 μmol) are dissolved in 5 ml xylene and lyophilized. Thereafter 4 ml of assay buffer is added to the dry powder and sonicated under nitrogen atmosphere at 4° C. Sonication conditions: Branson 250 sonicator, 10 mm tip, 6×5 minutes; Assay buffer: 10 mM Tris, 0.14 M NaCl, 1 mM EDTA, pH 7.4). The sonicated mixture is centrifuged 6 times for 5 minutes each time at 14,000 rpm (16,000×g) to remove titanium particles. The resulting clear solution is used for the enzyme assay.
For the LCAT purification, dextran sulfate/Mg^2+ treatment of human plasma is used to obtain lipoprotein deficient serum (LPDS), which is sequentially chromatographed on Phenylsepharose, Affigelblue, ConcanavalinA sepharose and anti-ApoA-I affinity chromatography, as summarized for a representative purification in TABLE IX, below: […]

SMILES	ACTIVITY (%) LCAT [%]
CC(C)C[C@H](NC(=O)[C@H](C)NC(=O)[C@H](CCC(=O)O)NC(=O)[C@H](CC(C)C)NC(=O)C(C)(C)NC(=O)[C@H](CCC(=O)O)NC(=O)[C@H](CC(N)=O)NC(=O)[C@H](CC(C)C)NC(=O)[C@H](CCCCN)NC(=O)[C@H](CCC(=O)O)NC(=O)[C@H](CCCNC(=N)N)NC(=O)[C@H](Cc1ccccc1)NC(=O)[C@H](CCCCN)NC(=O)[C@H](CC(=O)O)NC(=O)[C@H](CC(C)C)NC(=O)[C@@H](NC(=O)[C@@H]1CCCN1)C(C)C)C(=O)N[C@@H](CCCCN)C(=O)N[C@@H](CCC(N)=O)C(=O)N[C@@H](CCCCN)C(=O)N[C@@H](CC(C)C)C(=O)N[C@@H](CCCCN)C(=O)O [compound 74, PVLDKFREKLNEXLEALKQKLK] (H-PVLDKFREKLNE[Aib]LEALKQKLK-OH)	10
CC(C)C[C@H](NC(=O)[C@H](C)NC(=O)[C@H](CCC(=O)O)NC(=O)[C@H](CC(C)C)NC(=O)C(C)(C)NC(=O)[C@H](CCCCN)NC(=O)[C@H](CC(N)=O)NC(=O)[C@H](CC(C)C)NC(=O)[C@H](CCCCN)NC(=O)[C@H](CCC(=O)O)NC(=O)[C@H](CCCNC(=N)N)NC(=O)[C@H](Cc1ccccc1)NC(=O)[C@H](CCC(=O)O)NC(=O)[C@H](CC(=O)O)NC(=O)[C@H](CC(C)C)NC(=O)[C@@H](NC(=O)[C@@H]1CCCN1)C(C)C)C(=O)N[C@@H](CCCCN)C(=O)N[C@@H](CCC(N)=O)C(=O)N[C@@H](CCCCN)C(=O)N[C@@H](CC(C)C)C(=O)N[C@@H](CCCCN)C(=O)O [compound 77, PVLDEFREKLNKXLEALKQKLK] (H-PVLDEFREKLNK[Aib]LEALKQKLK-OH)	9
CC(C)C[C@H](NC(=O)[C@H](C)NC(=O)[C@H](CCC(=O)O)NC(=O)[C@H](CC(C)C)NC(=O)C(C)(C)NC(=O)[C@H](CCC(=O)O)NC(=O)[C@H](CC(N)=O)NC(=O)[C@H](CC(C)C)NC(=O)[C@H](CCCCN)NC(=O)[C@H](CCC(=O)O)NC(=O)[C@H](CCCNC(=N)N)NC(=O)[C@H](Cc1ccccc1)NC(=O)[C@H](CCC(=O)O)NC(=O)[C@H](CC(=O)O)NC(=O)[C@@H](N)CC(C)C)C(=O)N[C@@H](CCCCN)C(=O)N[C@@H](CCC(N)=O)C(=O)N[C@@H](CCCCN)C(=O)N[C@@H](CC(C)C)C(=O)N[C@@H](CCCCN)C(=O)O [compound 82, ~~LDEFREKLNEXLEALKQKLK] (H-LDEFREKLNE[Aib]LEALKQKLK-OH)	8
CC(C)C[C@H](NC(=O)[C@H](C)NC(=O)[C@H](CCC(=O)O)NC(=O)[C@H](CC(C)C)NC(=O)C(C)(C)NC(=O)[C@H](CCC(=O)O)NC(=O)[C@H](CC(N)=O)NC(=O)[C@H](CC(C)C)NC(=O)[C@H](CC(C)C)NC(=O)[C@H](CCC(=O)O)NC(=O)[C@H](CCCNC(=N)N)NC(=O)[C@H](Cc1ccccc1)NC(=O)[C@H](CCCCN)NC(=O)[C@H](CC(=O)O)NC(=O)[C@H](CC(C)C)NC(=O)[C@@H](NC(=O)[C@@H]1CCCN1)C(C)C)C(=O)N[C@@H](CCCCN)C(=O)N[C@@H](CCC(N)=O)C(=O)N[C@@H](CCCCN)C(=O)N[C@@H](CC(C)C)C(=O)N[C@@H](CCCCN)C(=O)O [compound 88, PVLDKFRELLNEXLEALKQKLK] (H-PVLDKFRELLNE[Aib]LEALKQKLK-OH)	7
CC(C)C[C@H](NC(=O)[C@H](C)NC(=O)[C@H](Cc1c[nH]c2ccccc12)NC(=O)[C@H](CC(C)C)NC(=O)C(C)(C)NC(=O)[C@H](CCC(=O)O)NC(=O)[C@H](CC(N)=O)NC(=O)[C@H](CC(C)C)NC(=O)[C@H](CCCCN)NC(=O)[C@H](CCC(=O)O)NC(=O)[C@H](CCCNC(=N)N)NC(=O)[C@H](Cc1ccccc1)NC(=O)[C@H](CCC(=O)O)NC(=O)[C@H](CC(=O)O)NC(=O)[C@H](CC(C)C)NC(=O)[C@@H](NC(=O)[C@@H]1CCCN1)C(C)C)C(=O)N[C@@H](CCCCN)C(=O)N[C@@H](CCC(N)=O)C(=O)N[C@@H](CCCCN)C(=O)N[C@@H](CC(C)C)C(=O)N[C@@H](CCCCN)C(=O)O [compound 89, PVLDEFREKLNEXLWALKQKLK] (H-PVLDEFREKLNE[Aib]LWALKQKLK-OH)	6

From patent publication US7273848B2, “Apolipoprotein A-I agonists and their use to treat dyslipidemic disorders” (priority 1997, dated 2007)
